Tests used:
Rho kinase 1 = Rho kinase 1 (Homo sapiens, UniProt Q13464); assay: In vitro Rho kinase inhibitory activity assay (ADP-Glo kit, Myelin Basic Protein substrate); format: biochemical; settings: 10 μM ATP, 25° C., read-out: ROCK1 inhibitory activity (Ki, range of activity)
In short: (§1)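 ADP-Glo luminescence assay at 25 °C in 40 mM Tris pH 7.5, 20 mM MgCl2, 0.1 mg/ml BSA, 50 μM DTT, with 2.5 μM myelin basic protein, 10 μM ATP and 1% DMSO. Compound and ROCK1 or ROCK2 were preincubated 30 min, then reacted 1 h. IC50 came from a sigmoidal fit; Ki via Cheng-Prusoff.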

Rho kinase 2 = Rho kinase 2 (Homo sapiens, UniProt O75116); assay: as above; format: biochemical; settings: 10 μM ATP, 25° C., read-out: ROCK2 inhibitory activity (Ki, range of activity)
In short: as §1

Chain of Rho kinase 1 (Q13464 whole entry): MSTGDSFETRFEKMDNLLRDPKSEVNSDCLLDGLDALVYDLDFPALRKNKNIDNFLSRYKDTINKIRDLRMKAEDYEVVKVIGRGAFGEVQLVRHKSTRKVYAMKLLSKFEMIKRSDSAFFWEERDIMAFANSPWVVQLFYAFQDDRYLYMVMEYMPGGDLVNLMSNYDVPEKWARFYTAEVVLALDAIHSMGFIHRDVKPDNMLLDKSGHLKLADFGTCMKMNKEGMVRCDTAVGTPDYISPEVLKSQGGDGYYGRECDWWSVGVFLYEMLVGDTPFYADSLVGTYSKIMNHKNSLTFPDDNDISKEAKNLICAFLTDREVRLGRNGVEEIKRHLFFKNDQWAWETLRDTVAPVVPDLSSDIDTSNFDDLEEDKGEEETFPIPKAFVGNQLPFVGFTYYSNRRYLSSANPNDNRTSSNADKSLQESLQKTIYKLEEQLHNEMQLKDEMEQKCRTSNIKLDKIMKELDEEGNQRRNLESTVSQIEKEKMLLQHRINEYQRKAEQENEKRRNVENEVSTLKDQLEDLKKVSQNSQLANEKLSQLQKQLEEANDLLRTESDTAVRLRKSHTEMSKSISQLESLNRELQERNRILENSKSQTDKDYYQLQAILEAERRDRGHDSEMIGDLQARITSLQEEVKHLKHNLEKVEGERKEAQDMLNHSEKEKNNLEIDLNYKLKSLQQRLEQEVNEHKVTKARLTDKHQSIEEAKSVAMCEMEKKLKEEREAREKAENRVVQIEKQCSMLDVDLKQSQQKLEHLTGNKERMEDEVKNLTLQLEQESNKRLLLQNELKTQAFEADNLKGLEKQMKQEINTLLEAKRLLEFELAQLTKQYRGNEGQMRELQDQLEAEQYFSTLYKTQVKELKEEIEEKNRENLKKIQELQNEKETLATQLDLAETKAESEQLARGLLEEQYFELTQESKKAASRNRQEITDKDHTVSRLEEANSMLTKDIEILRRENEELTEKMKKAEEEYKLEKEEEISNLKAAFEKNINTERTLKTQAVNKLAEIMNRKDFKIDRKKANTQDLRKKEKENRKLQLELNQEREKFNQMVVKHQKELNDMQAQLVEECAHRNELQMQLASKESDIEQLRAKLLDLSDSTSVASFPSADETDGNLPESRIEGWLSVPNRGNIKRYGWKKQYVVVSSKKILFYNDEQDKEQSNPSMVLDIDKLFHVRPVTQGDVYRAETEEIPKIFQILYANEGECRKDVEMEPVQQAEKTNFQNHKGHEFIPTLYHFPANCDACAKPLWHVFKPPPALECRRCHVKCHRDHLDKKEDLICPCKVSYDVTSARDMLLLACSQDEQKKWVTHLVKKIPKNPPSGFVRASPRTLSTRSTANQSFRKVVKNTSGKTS
Chain of Rho kinase 2 (O75116 whole entry): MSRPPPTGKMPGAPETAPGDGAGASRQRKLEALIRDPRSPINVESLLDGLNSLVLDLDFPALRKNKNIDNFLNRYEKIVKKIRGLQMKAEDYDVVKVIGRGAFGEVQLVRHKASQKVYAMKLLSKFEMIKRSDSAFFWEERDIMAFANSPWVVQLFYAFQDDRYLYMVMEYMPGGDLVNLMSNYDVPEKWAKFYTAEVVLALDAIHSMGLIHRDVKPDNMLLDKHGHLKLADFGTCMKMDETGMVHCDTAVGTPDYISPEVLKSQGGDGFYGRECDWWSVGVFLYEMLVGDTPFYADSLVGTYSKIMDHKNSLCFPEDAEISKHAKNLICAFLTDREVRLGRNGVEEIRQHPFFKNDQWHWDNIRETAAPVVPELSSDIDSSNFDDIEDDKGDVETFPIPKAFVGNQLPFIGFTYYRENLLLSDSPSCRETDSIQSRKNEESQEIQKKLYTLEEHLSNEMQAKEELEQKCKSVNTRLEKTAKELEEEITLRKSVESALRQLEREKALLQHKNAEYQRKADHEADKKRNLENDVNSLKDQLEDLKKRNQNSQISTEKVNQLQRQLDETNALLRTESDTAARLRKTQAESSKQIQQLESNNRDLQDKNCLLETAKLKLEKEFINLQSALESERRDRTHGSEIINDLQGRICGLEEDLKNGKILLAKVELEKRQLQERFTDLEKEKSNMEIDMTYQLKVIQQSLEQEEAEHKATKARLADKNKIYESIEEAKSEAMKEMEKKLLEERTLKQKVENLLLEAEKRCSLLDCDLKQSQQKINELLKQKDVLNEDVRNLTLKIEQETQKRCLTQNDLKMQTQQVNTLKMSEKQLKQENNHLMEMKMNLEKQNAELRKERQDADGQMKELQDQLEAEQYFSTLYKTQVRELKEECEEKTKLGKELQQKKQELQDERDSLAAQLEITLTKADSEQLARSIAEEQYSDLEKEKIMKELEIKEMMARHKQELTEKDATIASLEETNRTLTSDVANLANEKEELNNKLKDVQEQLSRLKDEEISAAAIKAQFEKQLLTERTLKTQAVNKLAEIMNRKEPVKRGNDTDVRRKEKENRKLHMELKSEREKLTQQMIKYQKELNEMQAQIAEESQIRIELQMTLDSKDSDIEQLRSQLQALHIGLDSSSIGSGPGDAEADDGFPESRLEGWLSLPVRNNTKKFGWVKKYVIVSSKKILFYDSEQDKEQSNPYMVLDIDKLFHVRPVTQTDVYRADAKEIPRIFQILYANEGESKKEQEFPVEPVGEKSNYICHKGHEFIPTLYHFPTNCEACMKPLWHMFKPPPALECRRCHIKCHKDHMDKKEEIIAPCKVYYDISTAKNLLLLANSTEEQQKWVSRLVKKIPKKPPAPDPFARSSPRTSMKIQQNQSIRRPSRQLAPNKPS

| Ki (Rho kinase 1) [nM] | Ki (Rho kinase 2) [nM] | Structure (SMILES) |
| --- | --- | --- |
| < 50 | < 50 | CC1=C(C(=O)Nc2ccc3cnccc3c2)C(c2ccc(Cl)c(C(F)(F)F)c2)n2nc(CO)cc2N1 (centres unmarked) [Example 47, 7-(4-chloro-3-(trifluoromethyl)phenyl)-2-(hydroxymethyl)-N-(isoquinolin-6-yl)-5-methyl-4,7-dihydropyrazolo[1,5-a]pyrimidine-6-carboxamide] |
| < 50 | < 50 | CC1=C(C(=O)Nc2ccc3cnccc3c2)C(c2cccc(C(F)(F)F)c2)n2nc(CO)cc2N1 (centres unmarked) [Example 51, 2-(hydroxymethyl)-N-(isoquinolin-6-yl)-5-methyl-7-(3-(trifluoromethyl)phenyl)-4,7-dihydropyrazolo[1,5-a]pyrimidine-6-carboxamide] |
| < 50 | < 50 | CC1=C(C(=O)Nc2ccc3cnccc3c2)C(c2ccc(Br)c(F)c2)n2nc(CO)cc2N1 (centres unmarked) [Example 55, 7-(4-bromo-3-fluorophenyl)-2-(hydroxymethyl)-N-(isoquinolin-6-yl)-5-methyl-4,7-dihydropyrazolo[1,5-a]pyrimidine-6-carboxamide] |
| < 50 | < 50 | CC1=C(C(=O)Nc2ccc3cnccc3c2)C(c2ccc(C(F)(F)F)c(F)c2F)n2nc(CO)cc2N1 (centres unmarked) [Example 56, 7-(2,3-difluoro-4-(trifluoromethyl)phenyl)-2-(hydroxymethyl)-N-(isoquinolin-6-yl)-5-methyl-4,7-dihydropyrazolo[1,5-a]pyrimidine-6-carboxamide] |
| < 50 | < 50 | CC1=C(C(=O)Nc2ccc3cnccc3c2)C(c2ccc(Cl)c(F)c2)n2nc(CO)cc2N1 (centres unmarked) [Example 57, 7-(4-chloro-3-fluorophenyl)-2-(hydroxymethyl)-N-(isoquinolin-6-yl)-5-methyl-4,7-dihydropyrazolo[1,5-a]pyrimidine-6-carboxamide] |
| < 50 | < 50 | CC1=C(C(=O)Nc2ccc3cnccc3c2)C(c2ccc(C)c(F)c2)n2nc(CO)cc2N1 (centres unmarked) [Example 58, 7-(3-fluoro-4-methylphenyl)-2-(hydroxymethyl)-N-(isoquinolin-6-yl)-5-methyl-4,7-dihydropyrazolo[1,5-a]pyrimidine-6-carboxamide] |
| < 50 | < 50 | CC1=C(C(=O)Nc2ccc3cnccc3c2)C(c2ccc(C)cc2F)n2nc(CO)cc2N1 (centres unmarked) [Example 59, 7-(2-fluoro-4-methylphenyl)-2-(hydroxymethyl)-N-(isoquinolin-6-yl)-5-methyl-4,7-dihydropyrazolo[1,5-a]pyrimidine-6-carboxamide] |
| < 50 | < 50 | CC1=C(C(=O)Nc2ccc3cnccc3c2)C(c2ccc3cc[nH]c3c2)n2nc(CO)cc2N1 (centres unmarked) [Example 63, 2-(hydroxymethyl)-7-(1H-indol-6-yl)-N-(isoquinolin-6-yl)-5-methyl-4,7-dihydropyrazolo[1,5-a]pyrimidine-6-carboxamide] |
| < 50 | < 50 | CC1=C(C(=O)Nc2ccc3cnccc3c2)C(c2ccc(Cl)cc2F)n2nc(CO)cc2N1 (centres unmarked) [Example 64, 7-(4-chloro-2-fluorophenyl)-2-(hydroxymethyl)-N-(isoquinolin-6-yl)-5-methyl-4,7-dihydropyrazolo[1,5-a]pyrimidine-6-carboxamide] |
| < 50 | < 50 | CC1=C(C(=O)Nc2ccc3cnccc3c2)C(c2ccc(C)cc2)n2nc(CO)cc2N1 (centres unmarked) [Example 66, 2-(hydroxymethyl)-N-(isoquinolin-6-yl)-5-methyl-7-(p-tolyl)-4,7-dihydropyrazolo[1,5-a]pyrimidine-6-carboxamide] |

Second part, the molecule before the results:

| Structure (SMILES) | Ki (Rho kinase 1) [nM] | Ki (Rho kinase 2) [nM] |
| --- | --- | --- |
| COCc1cc2n(n1)C(c1ccc3cc[nH]c3c1)C(C(=O)Nc1ccc3cnccc3c1)=C(C)N2 (centres unmarked) [Example 38, 7-(1H-indol-6-yl)-N-(isoquinolin-6-yl)-2-(methoxymethyl)-5-methyl-4,7-dihydropyrazolo[1,5-a]pyrimidine-6-carboxamide] | < 50 | < 50 |
| CC1=C(C(=O)Nc2cc3cn[nH]c3cc2F)C(c2ccc(Cl)nc2)n2nc(C(F)(F)F)cc2N1 (centres unmarked) [Example 39, 7-(6-chloropyridin-3-yl)-N-(6-fluoro-1H-indazol-5-yl)-5-methyl-2-(trifluoromethyl)-4,7-dihydropyrazolo[1,5-a]pyrimidine-6-carboxamide] | < 50 | < 50 |
| CCOC(=O)c1cc2n(n1)C(c1ccc(C(F)(F)F)c(F)c1)C(C(=O)Nc1cc3cnccc3s1)=C(C)N2 (centres unmarked) [Example 41, Ethyl 7-(3-fluoro-4-(trifluoromethyl)phenyl)-5-methyl-6-(thieno[3,2-c]pyridin-2-ylcarbamoyl)-4,7-dihydropyrazolo[1,5-a]pyrimidine-2-carboxylate] | > 500 | 50 to 500 |
| CCOC(=O)c1cc2n(n1)C(c1ccc(C(F)(F)F)c(F)c1)C(C(=O)Nc1cc3ccncc3s1)=C(C)N2 (centres unmarked) [Example 42, ethyl 7-(3-fluoro-4-(trifluoromethyl)phenyl)-5-methyl-6-(thieno[2,3-c]pyridin-2-ylcarbamoyl)-4,7-dihydropyrazolo[1,5-a]pyrimidine-2-carboxylate] | < 50 | < 50 |
| CC1=C(C(=O)Nc2ccc3cnccc3c2)C(c2cccc3c2ccn3C)n2nc(CO)cc2N1 (centres unmarked) [Example 44, 2-(hydroxymethyl)-N-(isoquinolin-6-yl)-5-methyl-7-(1-methyl-1H-indol-4-yl)-4,7-dihydropyrazolo[1,5-a]pyrimidine-6-carboxamide] | 50 to 500 | 50 to 500 |
| CC1=C(C(=O)Nc2ccc3cnccc3c2)C(c2ccc3ncn(C)c3c2)n2nc(CO)cc2N1 (centres unmarked) [Example 45, 2-(hydroxymethyl)-N-(isoquinolin-6-yl)-5-methyl-7-(1-methyl-1H-benzo[d]imidazol-6-yl)-4,7-dihydropyrazolo[1,5-a]pyrimidine-6-carboxamide] | > 500 | > 500 |
| CC1=C(C(=O)Nc2ccc3cnccc3c2)C(c2ccc3ccsc3c2)n2nc(CO)cc2N1 (centres unmarked) [Example 46, 7-(benzo[b]thiophen-6-yl)-2-(hydroxymethyl)-N-(isoquinolin-6-yl)-5-methyl-4,7-dihydropyrazolo[1,5-a]pyrimidine-6-carboxamide] | < 50 | < 50 |
| CC1=C(C(=O)Nc2ccc3cnccc3c2)C(C23CC4CC(CC(C4)C2)C3)n2nc(CO)cc2N1 (centres unmarked) [Example 48, 7-((3r,5r,7r)-adamantan-1-yl)-2-(hydroxymethyl)-N-(isoquinolin-6-yl)-5-methyl-4,7-dihydropyrazolo[1,5-a]pyrimidine-6-carboxamide] | 50 to 500 | 50 to 500 |
| CC1=C(C(=O)Nc2ccc3cnccc3c2)C(c2cnc(-c3ccccc3)o2)n2nc(CO)cc2N1 (centres unmarked) [Example 49, 2-(hydroxymethyl)-N-(isoquinolin-6-yl)-5-methyl-7-(2-phenyloxazol-5-yl)-4,7-dihydropyrazolo[1,5-a]pyrimidine-6-carboxamide] | 50 to 500 | < 50 |
| CC1=C(C(=O)Nc2ccc3cnccc3c2)C(c2cccc(Oc3ccccc3)c2)n2nc(CO)cc2N1 (centres unmarked) [Example 50, 2-(hydroxymethyl)-N-(isoquinolin-6-yl)-5-methyl-7-(3-phenoxyphenyl)-4,7-dihydropyrazolo[1,5-a]pyrimidine-6-carboxamide] | 50 to 500 | < 50 |
| CC1=C(C(=O)Nc2ccc3cnccc3c2)C(c2cnc(-c3ccccc3)s2)n2nc(CO)cc2N1 (centres unmarked) [Example 52, 2-(hydroxymethyl)-N-(isoquinolin-6-yl)-5-methyl-7-(2-phenylthiazol-5-yl)-4,7-dihydropyrazolo[1,5-a]pyrimidine-6-carboxamide] | < 50 | < 50 |
| CC1=C(C(=O)Nc2ccc3cnccc3c2)C(CCc2ccccc2)n2nc(CO)cc2N1 (centres unmarked) [Example 53, 2-(hydroxymethyl)-N-(isoquinolin-6-yl)-5-methyl-7-phenethyl-4,7-dihydropyrazolo[1,5-a]pyrimidine-6-carboxamide] | < 50 | < 50 |
| CC1=C(C(=O)Nc2ccc3cnccc3c2)C(c2ccc(C(C)(C)C)cc2)n2nc(CO)cc2N1 (centres unmarked) [Example 54, 7-(4-(tert-butyl)phenyl)-2-(hydroxymethyl)-N-(isoquinolin-6-yl)-5-methyl-4,7-dihydropyrazolo[1,5-a]pyrimidine-6-carboxamide] | 50 to 500 | < 50 |
| CC1=C(C(=O)Nc2ccc3[nH]ncc3c2)C(c2ccc(C)cc2)n2nc(CO)cc2N1 (centres unmarked) [Example 67, 2-(hydroxymethyl)-N-(1H-indazol-5-yl)-5-methyl-7-(p-tolyl)-4,7-dihydropyrazolo[1,5-a]pyrimidine-6-carboxamide] | < 50 | < 50 |
| CC1=C(C(=O)Nc2ccc3[nH]ncc3c2)C(c2ccc(Cl)cc2F)n2nc(CO)cc2N1 (centres unmarked) [Example 68, 7-(4-chloro-2-fluorophenyl)-2-(hydroxymethyl)-N-(1H-indazol-5-yl)-5-methyl-4,7-dihydropyrazolo[1,5-a]pyrimidine-6-carboxamide] | < 50 | < 50 |
| CC1=C(C(=O)Nc2ccc3[nH]ncc3c2)C(c2ccc(Cl)nc2)n2nc(CO)cc2N1 (centres unmarked) [Example 70, 7-(6-chloropyridin-3-yl)-2-(hydroxymethyl)-N-(1H-indazol-5-yl)-5-methyl-4,7-dihydropyrazolo[1,5-a]pyrimidine-6-carboxamide] | < 50 | < 50 |
| CC1=C(C(=O)Nc2ccc3[nH]ncc3c2)C(c2ccc(C(F)(F)F)cc2)n2nc(C(=O)O)cc2N1 (centres unmarked) [Example 73, 6-((1H-indazol-5-yl)carbamoyl)-5-methyl-7-(4-(trifluoromethyl)phenyl)-4,7-dihydropyrazolo[1,5-a]pyrimidine-2-carboxylic acid] | < 50 | < 50 |
| CC1=C(C(=O)Nc2ccc3[nH]ncc3c2)C(c2ccc(C)cc2)n2nc(C(=O)O)cc2N1 (centres unmarked) [Example 74, 6-((1H-indazol-5-yl)carbamoyl)-5-methyl-7-(p-tolyl)-4,7-dihydropyrazolo[1,5-a]pyrimidine-2-carboxylic acid] | < 50 | < 50 |

Source: patent publication US10584128B2, “Bicyclic dihydropyrimidine-carboxamide derivatives as Rho-Kinase inhibitors” (CHIESI FARMACEUTICI S.p.A., priority 2016, dated 2020)
